In PubChem BioAssay (NCI):
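Five compound concentrations were applied to cells in 96-well plates for 48 hours; endpoints were derived by simple linear interpolation of the resulting dose-response curve. GI50: concentration for 50% inhibition of growth. TGI: total growth inhibition.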

What follows are compounds tested on NCI-H23 lung (assay: NCI-60 cell line screen, 48 h).

SMILES	GI50	TGI
Cc1nn(-c2ccc(Cl)cc2)c2nc3c(nc12)C(=O)c1ccccc1-3	> 100 µM	> 100 µM
O=C(Nc1ccncc1)C(=O)c1cn(S(=O)(=O)c2ccc(F)cc2)c2ccccc12	2.54 µM	> 100 µM
COc1ccc(C(=O)/C=C/c2cc(-c3cc(OC)c(OC)c(OC)c3)n[nH]2)cc1OC	2.15 µM	5.24 µM
O=C(c1ccccc1Br)C(F)(F)F	–	> 100 µM
O=C1OCC2=C1C(c1cccc(Br)c1)c1cc3c(cc1N2CCO)CCC3 (stereo unspecified)	0.136 µM	8.42 µM
COc1ccc(NC(=O)/C(Cc2cc(=O)oc3cc(O)ccc23)=N\NC(C)(C)C)c(OC)c1	–	> 100 µM
O=C1/C(=C/c2ccc3c(c2)OCO3)SC2C=Nc3ccccc3N12 (stereo unspecified)	–	> 100 µM
CCOc1ccc(NC(=O)C(=O)CC(=O)c2c(C)n([O-])c3ccccc3[n+]2=O)cc1	–	> 100 µM
Cc1cc(Cl)ccc1NC(=O)C(=O)Cc1nc2ccccc2o1	–	> 100 µM
OCC1OC(c2nc(C3=NCCCN3)cs2)C(O)C1O (stereo unspecified)	–	> 100 µM
Oc1cccnc1[Se]	–	> 100 µM
O=C1C=CC(=O)c2cc3cc(CBr)ccc3cc21	9.84 µM	30.8 µM
CCC(C)COC(=O)c1ccc(N=Cc2ccc(C=Nc3ccc(C(=O)OCC(C)CC)cc3)cc2)cc1 (stereo unspecified)	–	> 100 µM
COc1cc(F)ccc1-c1ncnc(Nc2cccc(CS(C)(=N)=O)c2)n1 (stereo unspecified)	0.679 µM	7.14 µM
Cc1cc(N(CCC#N)CCC#N)ccc1N=Nc1ccc(C(=O)O)cc1	–	> 100 µM
[Cl][Hg][c]1cc[c]([Hg][Cl])o1	7.91 µM	92.1 µM
CN(C)CC1CCCC/C1=N/OC(=O)c1ccc(Cl)cc1 (stereo unspecified)	–	> 100 µM
N#CC(C(=O)C(=O)C(C#N)c1ccc(Br)cc1)c1ccc(Br)cc1 (stereo unspecified)	–	14.1 µM
COc1cccc(C2=NC(C(C)C)CO2)c1 (stereo unspecified)	–	> 100 µM
O=C1/C(=C/c2cccc(Cl)c2Cl)N=C(c2ccccc2)N1C1CC1	9.35 µM	19.5 µM

SMILES	GI50	TGI
CCOC(=O)C(=[N+]=[N-])[Si](C)(C)C	–	> 100 µM
CN(C)C(n1cc2c(c1)-c1ccc(Cl)cc1C(c1ccccc1F)=NC2)n1cc2c(c1)-c1ccc(Cl)cc1C(c1ccccc1F)=NC2	–	24.4 µM
CCCc1nc(NC#N)nc(C(=O)Nc2ccccc2)c1CC	–	> 100 µM
O=C(CCc1n[nH]c(=S)o1)Nc1ccccc1C(F)(F)F	–	> 100 µM
COc1cc2c(cc1OCCCNC(=O)c1cccc3c(=O)c4ccccc4[nH]c13)N=C[C@@H]1CCCN1C2=O	< 0.01 µM	< 0.0225 µM
Cc1ccc(NC(=O)CCc2cc(C(C)(C)C)nc(=S)[nH]2)cc1C	–	> 100 µM
Cc1[nH]c2ccccc2c1C(=O)/C=C/c1ccccc1O	–	> 100 µM
COc1cccc2c1C(=O)c1c(O)c3c(c(O)c1C2=O)C[C@](O)(C(=O)CO)C[C@H]3O[C@@H]1C[C@@H](NC(=O)CCCCCN(C)C2(c3ccc(F)cc3)CC3CCC2C3)[C@H](O)[C@@H](C)O1 (stereo partly specified)	3.49 µM	10.7 µM
CCOc1ccc(NC(=O)CC#N)cc1	–	> 100 µM
O=C(/C=C/c1cccc2ccccc12)c1ccccc1Cl	–	28.5 µM
COc1ccc(Nc2nnc(-c3cc(O)ccc3O)s2)cc1	> 50 µM	> 50 µM
Cc1ccc(/C=C/C(=O)c2sc(-c3nc(C)c(C(=O)/C=C/c4ccc(C)cc4)s3)nc2C)cc1	–	> 100 µM
O=C1/C(=C/c2ccc(Cl)cc2)CCC1CCN1CCOCC1 (stereo unspecified)	–	> 100 µM
Cn1cc(-c2csc(-c3c[nH]c4ccc(F)cc34)n2)c2cnccc21	1.62 µM	3.25 µM
O=C1Nc2ccccc2/C1=N\[O-].O=C1Nc2ccccc2/C1=N\[O-].[Cu+2]	> 100 µM	> 100 µM
CCC[CH2][Sn]([Cl])([CH2]CCC)[CH2]CCC	0.0552 µM	0.211 µM
CCOC(=O)Nc1ccc(C)c(NC(=O)OCC)c1	–	> 100 µM
O=c1ccn([C@H]2CSC[C@@H](CO)C2)c(=O)[nH]1	–	> 100 µM
C1CN2CCN3CCN4CCN1[P+]243	–	> 100 µM

What follows are compounds tested on UACC-257 melanoma (assay: NCI-60 cell line screen, 48 h).

SMILES	GI50	TGI
COc1cc(NCc2ccc3nc(N)nc(N)c3c2C)cc(OC)c1OC (tested in a mixture with another compound)	0.00993 µM	48.7 µM
Cc1nn(-c2ccc(Cl)cc2)c2nc3c(nc12)C(=O)c1ccccc1-3	> 100 µM	> 100 µM
O=C(Nc1ccncc1)C(=O)c1cn(S(=O)(=O)c2ccc(F)cc2)c2ccccc12	11.7 µM	> 100 µM
COc1ccc(C(=O)/C=C/c2cc(-c3cc(OC)c(OC)c(OC)c3)n[nH]2)cc1OC	1.49 µM	2.83 µM
O=C1OCC2=C1C(c1cccc(Br)c1)c1cc3c(cc1N2CCO)CCC3 (stereo unspecified)	0.0235 µM	8.12 µM
COc1ccc(NC(=O)/C(Cc2cc(=O)oc3cc(O)ccc23)=N\NC(C)(C)C)c(OC)c1	–	> 100 µM
O=C1/C(=C/c2ccc3c(c2)OCO3)SC2C=Nc3ccccc3N12 (stereo unspecified)	–	> 100 µM
CCOc1ccc(NC(=O)C(=O)CC(=O)c2c(C)n([O-])c3ccccc3[n+]2=O)cc1	–	> 100 µM
Cc1cc(Cl)ccc1NC(=O)C(=O)Cc1nc2ccccc2o1	–	> 100 µM
OCC1OC(c2nc(C3=NCCCN3)cs2)C(O)C1O (stereo unspecified)	–	> 100 µM
Oc1cccnc1[Se]	–	> 100 µM
O=C1C=CC(=O)c2cc3cc(CBr)ccc3cc21	56.9 µM	> 100 µM
CCC(C)COC(=O)c1ccc(N=Cc2ccc(C=Nc3ccc(C(=O)OCC(C)CC)cc3)cc2)cc1 (stereo unspecified)	–	> 100 µM
Cc1cc(N(CCC#N)CCC#N)ccc1N=Nc1ccc(C(=O)O)cc1	–	> 100 µM
[Cl][Hg][c]1cc[c]([Hg][Cl])o1	7.93 µM	28.8 µM
CN(C)CC1CCCC/C1=N/OC(=O)c1ccc(Cl)cc1 (stereo unspecified)	–	> 100 µM
N#CC(C(=O)C(=O)C(C#N)c1ccc(Br)cc1)c1ccc(Br)cc1 (stereo unspecified)	–	25.1 µM
COc1cccc(C2=NC(C(C)C)CO2)c1 (stereo unspecified)	–	> 100 µM
O=C1/C(=C/c2cccc(Cl)c2Cl)N=C(c2ccccc2)N1C1CC1	12.2 µM	26.2 µM
CCOC(=O)C(=[N+]=[N-])[Si](C)(C)C	–	> 100 µM

SMILES	GI50	TGI
CN(C)C(n1cc2c(c1)-c1ccc(Cl)cc1C(c1ccccc1F)=NC2)n1cc2c(c1)-c1ccc(Cl)cc1C(c1ccccc1F)=NC2	–	> 100 µM
CCCc1nc(NC#N)nc(C(=O)Nc2ccccc2)c1CC	–	> 100 µM
O=C(CCc1n[nH]c(=S)o1)Nc1ccccc1C(F)(F)F	–	> 100 µM
COc1cc2c(cc1OCCCNC(=O)c1cccc3c(=O)c4ccccc4[nH]c13)N=C[C@@H]1CCCN1C2=O	< 0.01 µM	0.759 µM
Cc1ccc(NC(=O)CCc2cc(C(C)(C)C)nc(=S)[nH]2)cc1C	–	> 100 µM
Cc1[nH]c2ccccc2c1C(=O)/C=C/c1ccccc1O	–	> 100 µM
O=C(Nc1nc(=S)c2c(ncn2CCOC(=O)c2ccccc2)[nH]1)c1ccccc1	–	> 100 µM
COc1cccc2c1C(=O)c1c(O)c3c(c(O)c1C2=O)C[C@](O)(C(=O)CO)C[C@H]3O[C@@H]1C[C@@H](NC(=O)CCCCCN(C)C2(c3ccc(F)cc3)CC3CCC2C3)[C@H](O)[C@@H](C)O1 (stereo partly specified)	0.931 µM	1.73 µM
CCOc1ccc(NC(=O)CC#N)cc1	–	> 100 µM
O=C(/C=C/c1cccc2ccccc12)c1ccccc1Cl	–	31.3 µM
COc1ccc(Nc2nnc(-c3cc(O)ccc3O)s2)cc1	> 50 µM	> 50 µM
Cc1ccc(/C=C/C(=O)c2sc(-c3nc(C)c(C(=O)/C=C/c4ccc(C)cc4)s3)nc2C)cc1	–	> 100 µM
O=C1/C(=C/c2ccc(Cl)cc2)CCC1CCN1CCOCC1 (stereo unspecified)	–	> 100 µM
Cn1cc(-c2csc(-c3c[nH]c4ccc(F)cc34)n2)c2cnccc21	1.96 µM	3.55 µM
O=C1Nc2ccccc2/C1=N\[O-].O=C1Nc2ccccc2/C1=N\[O-].[Cu+2]	> 100 µM	> 100 µM
CCC[CH2][Sn]([Cl])([CH2]CCC)[CH2]CCC	0.108 µM	0.248 µM
CCOC(=O)Nc1ccc(C)c(NC(=O)OCC)c1	–	> 100 µM
O=c1ccn([C@H]2CSC[C@@H](CO)C2)c(=O)[nH]1	–	> 100 µM
C1CN2CCN3CCN4CCN1[P+]243	–	> 100 µM
